From patent publication US10278965B2, “Method of detecting cancer stem cell, method of screening cancer stem cell, and method of inhibiting cancer stem cell” (CANON KABUSHIKI KAISHA, priority 2012, dated 2019)

Legend:
[1] = Measurement of fluorescent property of compound; format: physicochemical; settings: 5 μM DMSO solution
Procedure: The excitation wavelength and fluorescence wavelength of the compound were measured by a FL4500 spectrofluorometric measuring machine manufactured by Hitachi High-Technologies Corporation.

[2] = tested on: Prostatic cancer cells, PC-3; test: Cancer cell inhibitory (growth suppressive) action against prostatic cancer cells, CellTiter-Glo viable cell count; format: cell-based; settings: PC-3, 10 μg/mL, 24 hours
Procedure: Prostatic cancer cells, PC-3, were pre-cultured in RPMI1640 medium containing 10% FBS at 37° C. in a 5% CO2 ambient. Thereafter, 4,000 cells were seeded per well of a 96-well plate and further cultured for 24 hours. Subsequently, Compound (1) was added to the medium so as to obtain a final concentration of 10 μg/mL and cultured at 37° C. for 24 hours in a 5% CO2 ambient. The cultured cells were analyzed for viable cell count according to Cell Titer-Glo Luminescent Cell Viability Assay (manufactured by Promega KK.).
Viable cell count was analyzed in the same manner as in Experimental Example 24 except that Compound (1) of Experimental Example 24 was changed to each compound shown in Table 2.
Viable cell count was analyzed in the same manner as in Experimental Example 24 except that Compound (1) of Experimental Example 24 was changed to each of Comparative compounds 1 to 4, to obtain growth rates.
Note that the growth rate used in Examples refers to the rate (expressed by percentage) of viable cell count after culture relative to the number of cells at the initiation of cell culture. Evaluation criteria are the same as in the above experiments.

[3] = tested on: Human chronic myelocytic leukemia cells, K562, ALDH (+) fraction (cancer stem cells); test: Cancer stem-cell selective inhibitory action against chronic myelocytic leukemia cells, ALDH (+) fraction; format: cell-based; settings: 24 hours; for ALDH(+) growth rate / Growth suppression evaluated: K562 ALDH(+), 10 μg/ml
Procedure: (§1) Human chronic myelocytic leukemia cells, K562, were pre-cultured in RPMI1640 medium containing 10% FBS at 37° C. in a 5% CO2 ambient. Then, a fraction containing 80% or more of cancer stem cells was extracted by use of a cancer stem cell marker, ALDEFLUOR reagent (manufactured by VERITAS Corporation) and FACSAria flow cytometry (manufactured by Nippon Becton, Dickinson and Company). […] The cultured cells were analyzed for viable cell count according to CellTiter-Glo Luminescent Cell Viability Assay (manufactured by Promega KK.). […] Note that hereinafter, an ALDEFLUOR reagent positive fraction (deemed as cancer stem cells) is represented by ALDH (+), whereas an ALDEFLUOR reagent negative fraction (not deemed as cancer stem cells) is represented by ALDH (−), in some cases.
(§2) Further, the growth suppressive effect of cancer stem cells was evaluated based on the following criteria. Note that the growth rate in Examples is a value obtained by dividing viable cell count after culture by the number of cells at the initiation time of culture.

[4] = tested on: Human pancreas cancer cells, KLM-1; test: Cancer cell inhibitory (growth suppressive) action against pancreatic cancer cells, CellTiter-Glo viable cell count; settings: KLM-1, 10 μg/mL, 24 hours
Procedure: Human pancreas cancer cells, KLM-1, were pre-cultured in RPMI1640 medium containing 10% FBS at 37° C. in a 5% CO2 ambient. Thereafter, 4,000 cells were seeded per well of a 96-well plate and further cultured for 24 hours. […] The cultured cells were analyzed for viable cell count according to CellTiter-Glo Luminescent Cell Viability Assay (manufactured by Promega KK.).
Evaluation of cancer cell inhibition against the pancreatic cancer cells (KLM-1) (growth suppression) was made based on the following criteria. Note that the growth rate used in Examples refers to the rate (expressed by percentage) of viable cell count after culture relative to the number of cells at the initiation of cell culture.

[5] = tested on: Human chronic myelocytic leukemia cells, K562, ALDH (−) fraction (general cancer cells); test: Cancer stem-cell selective inhibitory action against chronic myelocytic leukemia cells, ALDH (−) fraction; format: cell-based; settings: K562 ALDH(−), 10 μg/ml, 24 hours
Procedure: as §1, §2

[6] = tested on: KLM1-KOr cells, ALDH (+) fraction, transplanted to zebra young fish; test: Cancer metastasis suppressive effect in cancer cell metastatic foci (region within 300 to 450 μm from a transplanted tumor); format: in vivo; settings: 72 hours later, region within 300 to 450 μm from transplanted tumor; for Inhibition rate 100×(1−F1/F0), metastatic foci: administered to yolk sac 24 hours after transplantation (Compound (26) 745 μmol/KgBW)
Procedure: From cell strain […], in which KLM1 cells have fluorescent protein Kusabira-Orange constantly expressed, a fraction (ALDH (+)) containing 80% or more of cancer stem cells was extracted with ALDEFLUOR reagent (manufactured by VERITAS Corporation) and FACSAria flow cytometry (manufactured by Nippon Becton, Dickinson and Company). The extracted KLM1-KOr cells were transplanted to zebra young fish (MieKomachi lineage, 2 days after fertilization) and the fish were raised in a 32° C. environment. Furthermore, 24 hours after transplantation, Compound (26) (745 μmol/KgBW) was administered to yolk sac.
72 hours later, cells transplanted to the zebra young fish were observed under MZ16F fluorescent stereoscopic microscope (manufactured by Leica Microsystems) and a fluorescent image of the region within 300 to 450 μm from a transplanted tumor was photographed and then fluorescent intensity was quantified.
As a reference, the fluorescent intensity of cells, which were cultured in the same operation method as above in a medium containing a 0.1% DMSO solution in place of Compound (26), was used.
Fluorescent images were photographed in the same manner as in Experimental Example 26 except that Imatinib and Dasatinib were respectively used in place of the compound (26) in Experimental Example 75.
The inhibition rate herein was obtained according to the expression: 100×(1−F1/F0), where the fluorescent intensity of cells when a test substance was added is represented by F1, and the fluorescent intensity of cells when a reference substance (DMSO) was added is represented by F0.

K562 ALDH (+) cells = test: Cancer stem-cell selective staining, ALDH (+) cells; format: cell-based, Human; settings: cells of Experimental Examples 39, 42 and 45 (1 μg/ml, cultured for 24 hours), fluorescent microscope
Procedure: (§3) The cells cultured for 24 hours in each of Experimental Examples 39, 42 and 45 were subjected to nuclear staining with Hoechest33342 (manufactured by Dojindo Laboratories) and a fluorescent image observed under AXIOVERT200M inverted fluorescent microscope (manufactured by Carl Zeiss) was photographed.

K562 ALDH (−) cells = test: Cancer stem-cell selective staining, ALDH (−) cells; format: cell-based, Human; settings: cells of Experimental Examples 39, 42 and 45 (1 μg/ml, cultured for 24 hours), fluorescent microscope
Procedure: as §3

Row | Excitation wavelength λex [1] | Fluorescence wavelength λem [1] | Structure (SMILES) | Cancer cell growth rate (%) [2] | Evaluation (cancer cell growth rate) [2] | ALDH(+) Superiority evaluation ([3]; K562, 10 μg/ml) | ALDH(+)/ALDH(−) ([3]; K562, 10 μg/ml) | Cancer cell growth rate (%) [4] | Evaluation (cancer cell growth rate) [4] | ALDH(+) growth rate [3] | Growth suppression evaluated [3] | ALDH(−) growth rate [5] | other results
1 | 485 nm | 575 nm | CCN1/C(=C\C=C\c2sc3ccccc3[n+]2CC)Sc2ccccc21 [Compound 1] | 13.8% | A (Cancer cell growth rate is less than 20%) | B (The value of the growth rate of ALDH (+)/the growth rate of ALDH (−) is 0.8 or more and less than 0.95) | 0.87 | 31.9% | B (Cancer cell growth rate is 20% or more and less than 50%) | – | – | – | –
2 | 560 nm | 628 nm | CCN1/C(=C\C(C)=C\c2sc3ccccc3[n+]2CC)Sc2ccccc21 [Compound 5] | 15.0% | A (Cancer cell growth rate is less than 20%) | A (The value of the growth rate of ALDH (+)/the growth rate of ALDH (−) is less than 0.8) | 0.79 | 6.4% | A (Cancer cell growth rate is less than 20%) | – | – | – | –
3 | 491 nm | 510 nm | CCN1/C(=C\C=C\c2oc3ccccc3[n+]2CC)Oc2ccccc21 [Compound 14] | – | – | A (The value of the growth rate of ALDH (+)/the growth rate of ALDH (−) is less than 0.8) | 0.77 | – | – | 0.38 | A (The growth rate of ALDH (+) is less than 0.5) | 0.49 | –
4 | 553 nm | 570 nm | CCN1/C(=C\C=C\C2=[N+](CC)c3ccccc3C2(C)C)C(C)(C)c2ccccc21.[I-] [Compound 22] | – | – | A (The value of the growth rate of ALDH (+)/the growth rate of ALDH (−) is less than 0.8) | 0.75 | – | – | 0.22 | A (The growth rate of ALDH (+) is less than 0.5) | 0.29 | –
5 | 684 nm | 710 nm | CN1\C(=C/C=C/C=C/C2=[N+](C)c3ccc4ccccc4c3C2(C)C)C(C)(C)c2c1ccc1ccccc21 [Compound 26] | – | – | – | – | 8.6% | A (Cancer cell growth rate is less than 20%) | – | – | – | Inhibition rate 100×(1−F1/F0), metastatic foci [6]: 80; Evaluation (inhibition rate, metastatic foci) [6]: A (Inhibition rate is 70 or more)
6 | 650 nm | 675 nm | CCCN1\C(=C/C=C/C=C/C2=[N+](CCC)c3ccccc3C2(C)C)C(C)(C)c2ccccc21 [Compound 27] | 7.7% | A (Cancer cell growth rate is less than 20%) | A (The value of the growth rate of ALDH (+)/the growth rate of ALDH (−) is less than 0.8) | 0.56 | 6.0% | A (Cancer cell growth rate is less than 20%) | – | – | – | –
7 | – | – | CCN1/C(=C/C=C/C=C/C=C/c2oc3ccccc3[n+]2CC)Oc2ccccc21 [Compound 33] | – | – | B (The value of the growth rate of ALDH (+)/the growth rate of ALDH (−) is 0.8 or more and less than 0.95) | 0.84 | – | – | 0.83 | B (The growth rate of ALDH (+) is 0.5 or more and less than 0.95) | 1.00 | –
8 | 638 nm | 661 nm | CCN1C=C/C(=C/C=C/c2sc3ccccc3[n+]2CC)c2ccccc21.[I-] [Compound 34] | – | – | A (The value of the growth rate of ALDH (+)/the growth rate of ALDH (−) is less than 0.8) | 0.72 | 26.6% | B (Cancer cell growth rate is 20% or more and less than 50%) | 0.48 | A (The growth rate of ALDH (+) is less than 0.5) | 0.67 | –
9 | 571 nm | 620 nm | CCN1C=C/C(=C/C=C/c2oc3ccccc3[n+]2CC)c2ccccc21 [Compound 35] | – | – | A (The value of the growth rate of ALDH (+)/the growth rate of ALDH (−) is less than 0.8) | 0.69 | 29.7% | B (Cancer cell growth rate is 20% or more and less than 50%) | – | – | – | ALDH(+) Superiority evaluation ([3]; K562, 0.05 μg/ml): A (The value of the growth rate of ALDH (+)/the growth rate of ALDH (−) is less than 0.8); ALDH(+)/ALDH(−) ([3]; K562, 0.05 μg/ml): 0.77; ALDH(+) Superiority evaluation ([3]; K562, 0.5 μg/ml): A (The value of the growth rate of ALDH (+)/the growth rate of ALDH (−) is less than 0.8); ALDH(+)/ALDH(−) ([3]; K562, 0.5 μg/ml): 0.66; ALDH(+) Superiority evaluation ([3]; K562, 1 μg/ml): B (The value of the growth rate of ALDH (+)/the growth rate of ALDH (−) is 0.8 or more and less than 0.95); ALDH(+)/ALDH(−) ([3]; K562, 1 μg/ml): 0.90; ratio of ALDH (+) cells stained (K562 ALDH (+) cells): 82.5%; ratio of ALDH (−) cells stained (K562 ALDH (−) cells): 21.4%
10 | 830 nm | 831 nm | CN1/C(=C/C=C2\CCCC(/C=C/C3=[N+](C)c4ccc5ccccc5c4C3(C)C)=C2Cl)C(C)(C)c2c1ccc1ccccc21 [Compound 49] | 5.3% | A (Cancer cell growth rate is less than 20%) | – | – | 12.0% | A (Cancer cell growth rate is less than 20%) | – | – | – | –
11 | – | – | CCN1/C(=C/C=C2\CCCC(/C=C/C3=[N+](CC)c4ccc(OC)cc4C34CCCCC4)=C2Oc2ccc(C(c3ccccc3)c3ccccc3)cc2)C2(CCCCC2)c2cc(OC)ccc21 [Compound 58] | – | – | B (The value of the growth rate of ALDH (+)/the growth rate of ALDH (−) is 0.8 or more and less than 0.95) | 0.82 | – | – | 0.70 | B (The growth rate of ALDH (+) is 0.5 or more and less than 0.95) | 0.85 | –
12 | – | – | Cc1nc(Nc2ncc(C(=O)Nc3c(C)cccc3Cl)s2)cc(N2CCN(CCO)CC2)n1 [Dasatinib] | – | – | – | – | – | – | – | – | – | Inhibition rate 100×(1−F1/F0), metastatic foci [6]: 36; Evaluation (inhibition rate, metastatic foci) [6]: C (Inhibition rate is less than 50)
